Data taken from patent US20250136586A1, “Substituted 7-(Pyrimidin-4-yl)Quinolin-4(1H)-One Compounds as Cyclin Dependent Kinase Inhibitors” (BeiGene, Ltd., priority 2022, published 2025).

What was measured:
CDK6/Cyclin D3 = CDK6/Cyclin D3 (Homo sapiens (Human), UniProt Q00534); experiment: TR-FRET kinase inhibition assay, CDK6/Cyclin D3; type: biochemical; settings: 1 mM ATP, 0.15 μM Rb (Ser780)-biotin substrate, read-out: CDK6D3 IC50
Procedure, shortened: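 Kinase preincubated 60 min at room temperature with 0–10 μM compound; reaction started with 1 mM ATP and 0.15 μM Rb (Ser780)-biotin, run 120 min at room temperature in HEPES pH 7.0, 50 mM MgCl2. pRb detected by TR-FRET (665/620 nm ratio); IC50 from four-parameter logistic fit.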

CDK4/Cyclin D1 = CDK4/Cyclin D1 (Homo sapiens (Human), UniProt P11802); experiment: TR-FRET kinase inhibition assay, CDK4/Cyclin D1; type: biochemical; settings: 1 mM ATP, 0.15 μM Rb (Ser780)-biotin substrate, read-out: CDK4D1 IC50
Procedure, shortened: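 Kinase was preincubated with compound for 60 min at room temperature, then reacted with ATP and Rb (Ser780)-biotin substrate for 120 min. IC50 came from a four-parameter logistic fit.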

Chain of CDK6/Cyclin D3 (Q00534 whole entry): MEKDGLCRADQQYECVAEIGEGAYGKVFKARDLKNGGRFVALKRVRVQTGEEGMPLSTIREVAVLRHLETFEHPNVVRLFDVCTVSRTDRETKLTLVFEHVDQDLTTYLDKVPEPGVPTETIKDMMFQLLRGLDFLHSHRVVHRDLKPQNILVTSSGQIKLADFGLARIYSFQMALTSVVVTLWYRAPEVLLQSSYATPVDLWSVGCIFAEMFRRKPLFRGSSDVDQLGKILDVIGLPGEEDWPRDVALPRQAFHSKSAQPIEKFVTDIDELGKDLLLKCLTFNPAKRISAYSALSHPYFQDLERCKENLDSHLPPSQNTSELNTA
Chain of CDK6/Cyclin D3 (P30281 whole entry partner): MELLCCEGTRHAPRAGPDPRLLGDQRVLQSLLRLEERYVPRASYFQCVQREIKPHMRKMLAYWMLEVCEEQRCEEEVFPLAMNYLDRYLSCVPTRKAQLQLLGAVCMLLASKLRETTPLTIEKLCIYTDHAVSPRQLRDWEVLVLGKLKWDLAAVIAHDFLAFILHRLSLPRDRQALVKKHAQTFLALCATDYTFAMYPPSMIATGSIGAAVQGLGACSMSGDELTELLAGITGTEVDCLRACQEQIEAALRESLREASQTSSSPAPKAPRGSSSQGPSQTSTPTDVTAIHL
Chain of CDK4/Cyclin D1 (P11802 whole entry): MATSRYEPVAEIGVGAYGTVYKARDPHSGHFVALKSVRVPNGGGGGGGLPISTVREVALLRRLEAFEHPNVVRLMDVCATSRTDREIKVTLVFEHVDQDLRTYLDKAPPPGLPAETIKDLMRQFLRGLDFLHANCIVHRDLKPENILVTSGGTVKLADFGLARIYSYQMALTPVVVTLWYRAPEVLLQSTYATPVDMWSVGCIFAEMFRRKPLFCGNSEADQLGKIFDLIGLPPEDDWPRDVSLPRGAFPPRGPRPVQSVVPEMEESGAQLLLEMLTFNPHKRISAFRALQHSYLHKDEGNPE
Chain of CDK4/Cyclin D1 (P24385 whole entry partner): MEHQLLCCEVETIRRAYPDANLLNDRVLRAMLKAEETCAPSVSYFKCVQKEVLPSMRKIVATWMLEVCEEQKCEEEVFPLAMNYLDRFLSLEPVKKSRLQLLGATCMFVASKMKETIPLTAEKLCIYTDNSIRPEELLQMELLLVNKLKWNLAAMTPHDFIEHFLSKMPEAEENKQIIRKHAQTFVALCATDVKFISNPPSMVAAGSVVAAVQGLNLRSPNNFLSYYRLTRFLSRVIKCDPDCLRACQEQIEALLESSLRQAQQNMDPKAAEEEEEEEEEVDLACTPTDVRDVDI

Row | Structure (SMILES) | IC50 (CDK6/Cyclin D3) [nM] | IC50 (CDK4/Cyclin D1) [nM]
1 | CC(C)n1c(CNC2CCCC2)cc(=O)c2ccc(-c3nc(N[C@@H]4CCOC[C@H]4O)ncc3F)cc21 [Example 66, 2-((cyclopentylamino)methyl)-7-(5-fluoro-2-(((3S,4R)-3-hydroxytetrahydro-2H-pyran-4-yl)amino)pyrimidin-4-yl)-1-isopropylquinolin-4(1H)-one] | 651 | 21
2 | CC(C)n1c(CN2C3CCCC2CC(O)C3)cc(=O)c2ccc(-c3nc(N[C@@H]4CCOC[C@H]4O)ncc3F)cc21 (stereo partly drawn) [Example 90, 7-(5-fluoro-2-(((3S,4R)-3-hydroxytetrahydro-2H-pyran-4-yl)amino)pyrimidin-4-yl)-2-(((1R,3R,5S)-3-hydroxy-9-azabicyclo[3.3.1]nonan-9-yl)methyl)-1-isopropylquinolin-4(1H)-one] | 251 | 5.7
3 | CC(C)n1c(CN[C@@H]2CCOC2)cc(=O)c2ccc(-c3nc(N[C@@H]4CCOC[C@H]4O)ncc3F)cc21 [Example 65, 7-(5-fluoro-2-(((3S,4R)-3-hydroxytetrahydro-2H-pyran-4-yl)amino)pyrimidin-4-yl)-1-isopropyl-2-((((R)-tetrahydrofuran-3-yl)amino)methyl)quinolin-4(1H)-one] | 744 | 31
4 | CC(C)NCc1cc(=O)c2ccc(-c3nc(N[C@@H]4CCOC[C@H]4O)ncc3F)cc2n1C(C)C [Example 47, 7-(5-fluoro-2-(((3S,4R)-3-hydroxytetrahydro-2H-pyran-4-yl)amino)pyrimidin-4-yl)-1-isopropyl-2-((isopropylamino)methyl)quinolin-4(1H)-one] | 658 | 14
5 | CC(C)n1c(CN2C[C@@H](O)[C@@H](F)C2)cc(=O)c2ccc(-c3nc(N[C@@H]4CCOC[C@H]4O)ncc3F)cc21 [Example 31, 7-(5-fluoro-2-(((3S,4R)-3-hydroxytetrahydro-2H-pyran-4-yl)amino)pyrimidin-4-yl)-2-(((3S,4R)-3-fluoro-4-hydroxypyrrolidin-1-yl)methyl)-1-isopropylquinolin-4(1H)-one] | 481 | 13
6 | Cc1cn(C(C)C)c2cc(-c3nc(N[C@@H]4CCOC[C@H]4O)ncc3F)ccc2c1=O [Example 2, 7-(5-fluoro-2-(((3S,4R)-3-hydroxytetrahydro-2H-pyran-4-yl)amino)pyrimidin-4-yl)-1-isopropyl-3-methylquinolin-4(1H)-one] | 1220 | 68
7 | CNC(=O)c1cc(=O)c2c(F)cc(-c3nc(N[C@@H]4CCOC[C@H]4O)ncc3F)cc2n1C(C)C [Example 19, 5-fluoro-7-(5-fluoro-2-(((3S,4R)-3-hydroxytetrahydro-2H-pyran-4-yl)amino)pyrimidin-4-yl)-1-isopropyl-N-methyl-4-oxo-1,4-dihydroquinoline-2-carboxamide] | 504 | 24
8 | CC(C)n1ccc(=O)c2c(Cl)cc(-c3nc(N[C@@H]4CCOC[C@H]4O)ncc3Cl)cc21 [Example 1, 5-chloro-7-(5-chloro-2-(((3S,4R)-3-hydroxytetrahydro-2H-pyran-4-yl)amino)pyrimidin-4-yl)-1-isopropylquinolin-4(1H)-one] | 808 | 101
9 | CC(C)n1c(CN2CCC(F)(F)C2)cc(=O)c2ccc(-c3nc(N[C@@H]4CCOC[C@H]4O)ncc3F)cc21 [Example 80, 2-((3,3-difluoropyrrolidin-1-yl)methyl)-7-(5-fluoro-2-(((3S,4R)-3-hydroxytetrahydro-2H-pyran-4-yl)amino)pyrimidin-4-yl)-1-isopropylquinolin-4(1H)-one] | 616 | 22
10 | Cc1cc(=O)c2ccc(-c3nc(N[C@@H]4CCOC[C@H]4O)ncc3F)cc2n1C1CCCC1 [Example 10, 1-cyclopentyl-7-(5-fluoro-2-(((3S,4R)-3-hydroxytetrahydro-2H-pyran-4-yl)amino)pyrimidin-4-yl)-2-methylquinolin-4(1H)-one] | 1440 | 40
11 | Cc1c(CN[C@@H]2CCOC2)n(C(C)C)c2cc(-c3nc(N[C@@H]4CCOC[C@H]4O)ncc3F)ccc2c1=O [Example 112, 7-(5-fluoro-2-(((3S,4R)-3-hydroxytetrahydro-2H-pyran-4-yl)amino)pyrimidin-4-yl)-1-isopropyl-3-methyl-2-((((R)-tetrahydrofuran-3-yl)amino)methyl)quinolin-4(1H)-one] | 615 | 15

More lines, now with the values ahead:

Row | IC50 (CDK6/Cyclin D3) [nM] | IC50 (CDK4/Cyclin D1) [nM] | Structure (SMILES)
12 | 370 | 8.6 | CC(C)n1c(CN2CCC[C@@H](F)C2)cc(=O)c2ccc(-c3nc(N[C@@H]4CCOC[C@H]4O)ncc3F)cc21 [Example 98, 7-(5-fluoro-2-(((3S,4R)-3-hydroxytetrahydro-2H-pyran-4-yl)amino)pyrimidin-4-yl)-2-(((R)-3-fluoropiperidin-1-yl)methyl)-1-isopropylquinolin-4(1H)-one]
13 | 336 | 16 | CC(C)n1c(CN2CCOCC2)cc(=O)c2ccc(-c3nc(N[C@@H]4CCOC[C@H]4O)ncc3Cl)cc21 [Example 26, 7-(5-chloro-2-(((3S,4R)-3-hydroxytetrahydro-2H-pyran-4-yl)amino)pyrimidin-4-yl)-1-isopropyl-2-(morpholinomethyl)quinolin-4(1H)-one]
14 | 432 | 24 | CNC(=O)c1c(C)c(=O)c2ccc(-c3nc(N[C@@H]4CCOC[C@H]4O)ncc3F)cc2n1C(C)C [Example 24, 7-(5-fluoro-2-(((3S,4R)-3-hydroxytetrahydro-2H-pyran-4-yl)amino)pyrimidin-4-yl)-1-isopropyl-N,3-dimethyl-4-oxo-1,4-dihydroquinoline-2-carboxamide]
15 | 230 | 5 | Cc1c(CN2CCCC3(CCNC3=O)C2)n(C(C)C)c2cc(-c3nc(N[C@@H]4CCOC[C@H]4O)ncc3F)ccc2c1=O (stereo partly drawn) [Example 124, 7-((7-(5-fluoro-2-(((3S,4R)-3-hydroxytetrahydro-2H-pyran-4-yl)amino)pyrimidin-4-yl)-1-isopropyl-3-methyl-4-oxo-1,4-dihydroquinolin-2-yl)methyl)-2,7-diazaspiro[4.5]decan-1-one]
16 | 200 | 10 | CC(C)n1c(CN2C[C@H](O)[C@@H](F)C2)cc(=O)c2ccc(-c3nc(N[C@@H]4CCOC[C@H]4O)ncc3F)cc21 [Example 32, 7-(5-fluoro-2-(((3S,4R)-3-hydroxytetrahydro-2H-pyran-4-yl)amino)pyrimidin-4-yl)-2-(((3S,4S)-3-fluoro-4-hydroxypyrrolidin-1-yl)methyl)-1-isopropylquinolin-4(1H)-one]
17 | 271 | 6.6 | Cc1c(CN2CCC(O)CC2)n(C(C)C)c2cc(-c3nc(N[C@@H]4CCOC[C@H]4O)ncc3F)ccc2c1=O [Example 115, 7-(5-fluoro-2-(((3S,4R)-3-hydroxytetrahydro-2H-pyran-4-yl)amino)pyrimidin-4-yl)-2-((4-hydroxypiperidin-1-yl)methyl)-1-isopropyl-3-methylquinolin-4(1H)-one]
18 | 406 | 4.1 | CC(C)n1c(CN2CCC[C@@H](C#N)C2)cc(=O)c2ccc(-c3nc(N[C@@H]4CCOC[C@H]4O)ncc3F)cc21 [Example 88, (R)-1-((7-(5-fluoro-2-(((3S,4R)-3-hydroxytetrahydro-2H-pyran-4-yl)amino)pyrimidin-4-yl)-1-isopropyl-4-oxo-1,4-dihydroquinolin-2-yl)methyl)piperidine-3-carbonitrile]
19 | 220 | 1.6 | Cc1c(C2CCCN2)n(C(C)C)c2cc(-c3nc(N[C@@H]4CCOC[C@H]4O)ncc3F)ccc2c1=O (stereo partly drawn) [Example 389, 7-(5-fluoro-2-(((3S,4R)-3-hydroxytetrahydro-2H-pyran-4-yl)amino)pyrimidin-4-yl)-1-isopropyl-3-methyl-2-(pyrrolidin-2-yl)quinolin-4(1H)-one]
20 | 255 | 15 | Cc1c(Cl)c(=O)c2ccc(-c3nc(N[C@@H]4CCOC[C@H]4O)ncc3F)cc2n1C(C)C [Example 15, 3-chloro-7-(5-fluoro-2-(((3S,4R)-3-hydroxytetrahydro-2H-pyran-4-yl)amino)pyrimidin-4-yl)-1-isopropyl-2-methylquinolin-4(1H)-one]
21 | 170 | 6.8 | CC(C)n1c(CN2CC[C@@H](F)[C@H](O)C2)cc(=O)c2ccc(-c3nc(N[C@@H]4CCOC[C@H]4O)ncc3F)cc21 [Example 84, 7-(5-fluoro-2-(((3S,4R)-3-hydroxytetrahydro-2H-pyran-4-yl)amino)pyrimidin-4-yl)-2-(((3R,4R)-4-fluoro-3-hydroxypiperidin-1-yl)methyl)-1-isopropylquinolin-4(1H)-one]
22 | 352 | 22 | CC(C)n1c(CNc2cnn(C)c2)cc(=O)c2ccc(-c3nc(N[C@@H]4CCOC[C@H]4O)ncc3F)cc21 [Example 78, 7-(5-fluoro-2-(((3S,4R)-3-hydroxytetrahydro-2H-pyran-4-yl)amino)pyrimidin-4-yl)-1-isopropyl-2-(((1-methyl-1H-pyrazol-4-yl)amino)methyl)quinolin-4(1H)-one]
23 | 312 | 26 | COc1ccc(NCc2cc(=O)c3ccc(-c4nc(N[C@@H]5CCOC[C@H]5O)ncc4F)cc3n2C(C)C)cc1 [Example 101, 7-(5-fluoro-2-(((3S,4R)-3-hydroxytetrahydro-2H-pyran-4-yl)amino)pyrimidin-4-yl)-1-isopropyl-2-(((4-methoxyphenyl)amino)methyl)quinolin-4(1H)-one]
24 | 360 | 15 | Cc1c(CN2CC[C@](C)(O)C2)n(C(C)C)c2cc(-c3nc(N[C@@H]4CCOC[C@H]4O)ncc3F)ccc2c1=O [Example 125, 7-(5-fluoro-2-(((3S,4R)-3-hydroxytetrahydro-2H-pyran-4-yl)amino)pyrimidin-4-yl)-2-(((S)-3-hydroxy-3-methylpyrrolidin-1-yl)methyl)-1-isopopyl-3-methylquinolin-4(1H)-one]
